According to ChEMBL document CHEMBL3885861, “Open TG-GATES”:

Organism: Rattus norvegicus
Assay: Open TG-GATES - Regimen: Single
Assay type: toxicity, organism-based, Sprague-Dawley
Set-up: regimen Single, gender Male, age 6 weeks
Details: in vivo, po, 15 mg/kg, route gavage, dose level Low; for APTT / Bas / Eos / Fbg / Hb / Ht / Lym / MCH / MCHC / MCV / Mono / Neu / PT / Plat / RBC / Ret / WBC: tissue Blood; for KIDNEY_L / KIDNEY_R / KIDNEY_TOTAL: tissue Kidney; for LIVER: tissue Liver; for A/G / ALP / ALT / AST / BUN / CRE / Ca / Cl / DBIL / GLC / IP / K / LDH / Na / PL / RALB / TBIL / TC / TG / TP / gamma-GTP: tissue Plasma

`CC1=C(CC(=O)O)c2cc(F)ccc2/C1=C\c1ccc([S+](C)[O-])cc1` (configuration not stated) was tested, and the TERMINAL_BW (3 h) was 200.6 g, the APTT (3 h) was 22.7 s and the Bas (3 h) was 0%. It also gave an Eos (3 h) of 1%, a Fbg (3 h) of 290.6 mg/dL and a Hb (3 h) of 13.4 g/dL. It also gave a Ht (3 h) of 40.8%, a Lym (3 h) of 74.8% and an MCH (3 h) of 21.4 pg. It also gave an MCHC (3 h) of 32.8%, an MCV (3 h) of 65.3 fL and a Mono (3 h) of 3%. It also gave a Neu (3 h) of 21%, a PT (3 h) of 14 s and a Plat (3 h) of 130.1 x10_4/uL. The RBC (3 h) was 625.6 x10_4/ul, the Ret (3 h) was 8.8% and the WBC (3 h) was 78.5 x10_2/uL. The KIDNEY_L (3 h) was 1 g, the KIDNEY_R (3 h) was 0.9 g and the KIDNEY_TOTAL (3 h) was 1.9 g. For the same molecule, the LIVER (3 h) was 9.3 g, the A/G (3 h) was 0.9 and the ALP (3 h) was 1384.2 IU/L. For the same molecule, the ALT (3 h) was 40.4 IU/L, the AST (3 h) was 69.6 IU/L and the BUN (3 h) was 11 mg/dL. The CRE (3 h) was 0.2 mg/dL, the Ca (3 h) was 10.9 mg/dL and the Cl (3 h) was 105 meq/L. For the same molecule, the DBIL (3 h) was 0.01 mg/dL, the GLC (3 h) was 173.2 mg/dL and the IP (3 h) was 8.4 mg/dL. The K (3 h) was 4 meq/L, the LDH (3 h) was 66.8 IU/L and the Na (3 h) was 140.8 meq/L. For the same molecule, the PL (3 h) was 140.6 mg/dL, the RALB (3 h) was 2.6 g/dL and the TBIL (3 h) was 0.036 mg/dL. For the same molecule, the TC (3 h) was 71.2 mg/dL, the TG (3 h) was 65.6 mg/dL and the TP (3 h) was 5.3 g/dL. The gamma-GTP (3 h) was 1 IU/L, the TERMINAL_BW (6 h) was 201 g and the APTT (6 h) was 16.5 s. For the same molecule, the Bas (6 h) was 0%, the Eos (6 h) was 1% and the Fbg (6 h) was 279.2 mg/dL. The Hb (6 h) was 13.5 g/dL, the Ht (6 h) was 41.4% and the Lym (6 h) was 74%. The MCH (6 h) was 20.8 pg, the MCHC (6 h) was 32.6% and the MCV (6 h) was 63.7 fL. The Mono (6 h) was 2.4%, the Neu (6 h) was 22.4% and the PT (6 h) was 14.1 s. It also gave a Plat (6 h) of 115.6 x10_4/uL, an RBC (6 h) of 650.4 x10_4/ul and a Ret (6 h) of 8.1%. The WBC (6 h) was 70.2 x10_2/uL, the KIDNEY_L (6 h) was 0.9 g and the KIDNEY_R (6 h) was 0.9 g. For the same molecule, the KIDNEY_TOTAL (6 h) was 1.7 g, the LIVER (6 h) was 8.2 g and the A/G (6 h) was 1. It also gave an ALP (6 h) of 1365.6 IU/L, an ALT (6 h) of 41.4 IU/L and an AST (6 h) of 72.4 IU/L. The BUN (6 h) was 9 mg/dL, the CRE (6 h) was 0.2 mg/dL and the Ca (6 h) was 10.8 mg/dL. For the same molecule, the Cl (6 h) was 106.8 meq/L, the DBIL (6 h) was 0.006 mg/dL and the GLC (6 h) was 172.8 mg/dL. The IP (6 h) was 9.3 mg/dL, the K (6 h) was 4.3 meq/L and the LDH (6 h) was 73.2 IU/L. It also gave a Na (6 h) of 141.4 meq/L, a PL (6 h) of 137.6 mg/dL and an RALB (6 h) of 2.5 g/dL. The TBIL (6 h) was 0.03 mg/dL, the TC (6 h) was 78.6 mg/dL and the TG (6 h) was 40 mg/dL. For the same molecule, the TP (6 h) was 5.2 g/dL, the gamma-GTP (6 h) was 1.4 IU/L and the TERMINAL_BW (9 h) was 198.6 g. For the same molecule, the APTT (9 h) was 16.9 s, the Bas (9 h) was 0% and the Eos (9 h) was 0.8%. It also gave a Fbg (9 h) of 285.6 mg/dL, a Hb (9 h) of 13.2 g/dL and a Ht (9 h) of 40.7%. It also gave a Lym (9 h) of 81.4%, an MCH (9 h) of 21 pg and an MCHC (9 h) of 32.4%. For the same molecule, the MCV (9 h) was 64.8 fL, the Mono (9 h) was 2% and the Neu (9 h) was 15.2%. It also gave a PT (9 h) of 14.2 s, a Plat (9 h) of 128.1 x10_4/uL and an RBC (9 h) of 627.6 x10_4/ul. It also gave a Ret (9 h) of 8.8%, a WBC (9 h) of 72.2 x10_2/uL and a KIDNEY_L (9 h) of 0.9 g. The KIDNEY_R (9 h) was 0.9 g, the KIDNEY_TOTAL (9 h) was 1.8 g and the LIVER (9 h) was 7.7 g. It also gave an A/G (9 h) of 0.9, an ALP (9 h) of 1238.2 IU/L and an ALT (9 h) of 43.4 IU/L. The AST (9 h) was 74.4 IU/L, the BUN (9 h) was 10.6 mg/dL and the CRE (9 h) was 0.2 mg/dL. The Ca (9 h) was 10.7 mg/dL, the Cl (9 h) was 108 meq/L and the DBIL (9 h) was 0.008 mg/dL. The GLC (9 h) was 173.6 mg/dL, the IP (9 h) was 9.9 mg/dL and the K (9 h) was 4.1 meq/L. It also gave an LDH (9 h) of 65.2 IU/L, a Na (9 h) of 142.2 meq/L and a PL (9 h) of 135.4 mg/dL. It also gave an RALB (9 h) of 2.5 g/dL, a TBIL (9 h) of 0.042 mg/dL and a TC (9 h) of 76.2 mg/dL. For the same molecule, the TG (9 h) was 37.6 mg/dL, the TP (9 h) was 5.2 g/dL and the gamma-GTP (9 h) was 1 IU/L. The TERMINAL_BW (24 h) was 215 g, the APTT (24 h) was 22.5 s and the Bas (24 h) was 0%. The Eos (24 h) was 1%, the Fbg (24 h) was 310.4 mg/dL and the Hb (24 h) was 14 g/dL. It also gave a Ht (24 h) of 43.7%, a Lym (24 h) of 77.4% and an MCH (24 h) of 21 pg. For the same molecule, the MCHC (24 h) was 32%, the MCV (24 h) was 65.8 fL and the Mono (24 h) was 2.2%. For the same molecule, the Neu (24 h) was 19%, the PT (24 h) was 13.3 s and the Plat (24 h) was 125.4 x10_4/uL. The RBC (24 h) was 665.4 x10_4/ul, the Ret (24 h) was 7.7% and the WBC (24 h) was 81.5 x10_2/uL. It also gave a KIDNEY_L (24 h) of 0.9 g, a KIDNEY_R (24 h) of 0.9 g and a KIDNEY_TOTAL (24 h) of 1.8 g. For the same molecule, the LIVER (24 h) was 10.4 g, the A/G (24 h) was 0.9 and the ALP (24 h) was 1898.6 IU/L. It also gave an ALT (24 h) of 48 IU/L, an AST (24 h) of 70.2 IU/L and a BUN (24 h) of 15.4 mg/dL. It also gave a CRE (24 h) of 0.2 mg/dL, a Ca (24 h) of 11.2 mg/dL and a Cl (24 h) of 104.6 meq/L. The DBIL (24 h) was 0.01 mg/dL, the GLC (24 h) was 189.6 mg/dL and the IP (24 h) was 7.4 mg/dL. For the same molecule, the K (24 h) was 4.2 meq/L, the LDH (24 h) was 90.8 IU/L and the Na (24 h) was 141 meq/L. The PL (24 h) was 176.4 mg/dL, the RALB (24 h) was 2.7 g/dL and the TBIL (24 h) was 0.014 mg/dL. It also gave a TC (24 h) of 95 mg/dL, a TG (24 h) of 134.8 mg/dL and a TP (24 h) of 5.7 g/dL. The gamma-GTP (24 h) was 1 IU/L.
